The subject of one assay is Caov-3. The conditions noted are these: in combination with STX-1159, 72 hours. An excerpt:
(§1) NCI-H2228, NCI-H1975, SK-BR-3, Hep3B, MCF-7, Caov-3, A2058, K562 and SUP-B15 were purchased from American Type Culture Collection, SAS and HuH-7 were purchased from National Institutes of Biomedical Innovation, Health and Nutrition, and K1, FTC-133 and Ishikawa were purchased European Collection of Authenticated Cell Cultures. […] Fetal bovine serum (hereinafter, abbreviated as FBS) and MCDB 105 culture medium were purchased from Sigma Aldrich (Cat. Nos. 172012 and 117-500), and RMPI1640 culture medium, DMEM medium, Ham's F-12 medium, MEM medium and IMDM culture medium were purchased Thermo Fisher Scientific (Cat. Nos. A1049101, 11995-065, 11765-054, 11095-080 and 12440-053).
(§2) The cells were inoculated on a 96-well plate to the density shown in Table 2, and were cultured under conditions of 5% CO2 and 37° C. The agents were singly added one day after the cells were inoculated. To the control group was added DMSO, so as to be a final concentration of 0.05%. Subsequently, the cells were cultured under conditions of 5% CO2 and 37° C. for the time shown in Table 2, and the number living cells was evaluated by WST-8 assay. That is, 10 μL of a WST-8 kit solution (Kishida Chemical Co., ltd, Cat. No. 260-96162) was added to each well, and the cells were cultured under conditions of 5% CO2 and 37° C. for 1 to 2 hours. The absorbance of water-soluble formazan generated by enzymatic activity of mitochondria in cells was measured at 450 nm using a microplate reader (Molecular Devices, Model: SpectraMax Plus). This was evaluated as the viable cell count to calculate a 50% cell growth inhibitory concentration (hereinafter, abbreviated as IC50).
(§3) The cells were inoculated on a 96-well plate so as to be the density shown in Table 2, and were cultured under conditions of 5% CO2 and 37° C. One day after the cells were inoculated, for single groups, STX-1159 and the agents were each added so as to be a final concentration which is ¼ times, ½ times, 1 time, 2 times or 4 times the reference dose, and for combination groups, STX-1159 and the agents were added so as to be a final concentration where STX-1159 and the agents combined were each ¼ times, ½ times, 1 time, 2 times or 4 times the reference dose. To the control group was added DMSO, so as to be a final concentration of 0.1%. Subsequently, the cells were cultured under conditions of 5% CO2 and 37° C. for the time shown in Table 2, and the number living cells was measured by WST-8 assay. The fraction affected (hereinafter, abbreviated as fa) was calculated from the following expression:
(§4) fa=1−(viable cell count in agent exposure group)/(viable cell count in control group).
(§5) By a median-effect method using combination effect analyzing software CalcuSyn (HULINKS), the combination index (hereinafter, abbreviated as CI) was calculated from fa obtained when STX-1159 and the agents were exposed alone or in combination. Evaluation of the combination effect was based on grading by CI in Table 4. In calculation of CI, the average of the values from two or more experiments was employed.

The subject of another assay is Ishikawa. The note with it: in combination with STX-1159, 72 hours.
Text: as §1, §2, §3, §4, §5

For a further assay, the system named is MCF-7. The note with it: in combination with STX-1159, 72 hours.
Text: as §1, §2, §3, §4, §5

Assay [1] is described as follows: Combination effect by median-effect method, summary over the cell lines of Example 1. The class given is cell-based. The note with it: in combination with STX-1159; summary of Table 5. On the procedure: The fraction affected (hereinafter, abbreviated as fa) was calculated from the following expression: fa=1-(viable cell count in agent exposure group)/(viable cell count in control group). […] Evaluation of the combination effect was based on grading by CI in Table 4. In calculation of CI, the average of the values from two or more experiments was employed.

Another assay has as its system SK-BR-3. Put plainly: Combination effect by median-effect method, WST-8 assay. The class given is cell-based, Human. The conditions noted are these: in combination with STX-1159, 72 hours.
Text: as §1, §2, §3, §4, §5
For orientation: Tetrazolium assays rely on reduction of a dye to a coloured formazan, in cell work by metabolically active cells.

The next assay deals with T1, phosphorylated STAT3 (Homo sapiens, UniProt P40763).
T1 construct: endogenous in cells; host or cells: NCI-H2228
T1 sequence (P40763 whole entry): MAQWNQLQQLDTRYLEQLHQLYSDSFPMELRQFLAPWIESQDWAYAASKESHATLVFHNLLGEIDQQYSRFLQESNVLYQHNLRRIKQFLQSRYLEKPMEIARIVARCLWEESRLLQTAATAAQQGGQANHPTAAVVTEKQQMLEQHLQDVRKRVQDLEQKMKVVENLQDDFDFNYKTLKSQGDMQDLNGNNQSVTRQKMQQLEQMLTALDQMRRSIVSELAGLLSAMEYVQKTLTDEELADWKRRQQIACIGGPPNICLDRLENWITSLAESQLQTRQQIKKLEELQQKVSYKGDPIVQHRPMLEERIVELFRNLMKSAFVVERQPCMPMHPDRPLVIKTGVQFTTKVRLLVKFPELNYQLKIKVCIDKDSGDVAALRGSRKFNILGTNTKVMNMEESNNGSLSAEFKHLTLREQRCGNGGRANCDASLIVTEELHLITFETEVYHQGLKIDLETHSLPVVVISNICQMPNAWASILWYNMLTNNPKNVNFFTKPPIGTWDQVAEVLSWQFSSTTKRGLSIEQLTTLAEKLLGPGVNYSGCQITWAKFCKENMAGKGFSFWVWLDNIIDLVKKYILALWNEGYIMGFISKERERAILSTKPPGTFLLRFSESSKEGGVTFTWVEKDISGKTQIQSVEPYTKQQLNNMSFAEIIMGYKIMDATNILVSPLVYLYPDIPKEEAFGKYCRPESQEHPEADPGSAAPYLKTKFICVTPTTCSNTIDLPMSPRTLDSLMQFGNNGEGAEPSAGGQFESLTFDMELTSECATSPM
Put plainly: Western blotting in NCI-H2228 cells. The class given is cell-based. The conditions noted are these: 24 hours.

Another assay relates to NCI-H2228. Put plainly: Combination effect by median-effect method, WST-8 assay. The class given is cell-based, Human. The conditions noted are these: in combination with STX-1159, 72 hours.
Text: as §1
(§6) The agents were singly added one day after the cells were inoculated. […] The absorbance of water-soluble formazan generated by enzymatic activity of mitochondria in cells was measured at 450 nm using a microplate reader (Molecular Devices, Model: SpectraMax Plus). This was evaluated as the viable cell count to calculate a 50% cell growth inhibitory concentration (hereinafter, abbreviated as IC50). The reference dose of each agent was set based on IC50 (Table 3).
(§7) One day after the cells were inoculated, for single groups, STX-1159 and the agents were each added so as to be a final concentration which is ¼ times, ½ times, 1 time, 2 times or 4 times the reference dose, and for combination groups, STX-1159 and the agents were added so as to be a final concentration where STX-1159 and the agents combined were each ¼ times, ½ times, 1 time, 2 times or 4 times the reference dose. […] The fraction affected (hereinafter, abbreviated as fa) was calculated from the following expression:
as §4, §5

The next assay has as its system c-myc. Put plainly: Western blotting in NCI-H2228 cells. It is filed as cell-based, Human. The conditions noted are these: 24 hours. In general terms: A western blot detects proteins with antibodies after separation by electrophoresis.
A further assay concerns Hep3B. Put plainly: Combination effect by median-effect method, WST-8 assay. The class given is cell-based, Human. The note with it: in combination with STX-1159, 72 hours.
Text: as §1, §6, §7, §4, §5

A further assay relates to HuH-7. The assay is described as above. The class given is cell-based, Human. The note with it: in combination with STX-1159, 72 hours.
Text: as §1, §6, §7, §4, §5

A further assay concerns K562. Described as above. It is filed as cell-based, Human. The note with it: in combination with STX-1159, 48 hours.
Text: as §1, §2, §3, §4, §5

The test system of the next assay is SUP-B15. The assay is described as above. The class given is cell-based. The conditions noted are these: in combination with STX-1159, 72 hours.
Text: as §1, §2
as §3, with “expression: […]” for “expression:”
By a median-effect method using combination effect analyzing software CalcuSyn (HULINKS), the combination index (hereinafter, abbreviated as CI) was calculated from fa obtained when STX-1159 and the agents were exposed alone or in combination. […]

For another assay, the system named is FTC-133. The note with it: in combination with STX-1159, 72 hours.
Text: as §1, §2, §3, §4, §5

In the next assay the test system is SAS. The note with it: in combination with STX-1159, 48 hours.
Text: as §1, §2, §3, §4, §5

A further assay concerns K1. Put plainly: Combination effect by median-effect method, WST-8 assay. The note with it: in combination with STX-1159, 72 hours. It is filed as cell-based, Human.
Text: as §1, §6, §7, §4, §5

For a further assay, the system named is NCI-H1975. The description is as above. It is filed as cell-based, Human. The note with it: in combination with STX-1159, 72 hours.
Text: as §1, §6, §7, §4, §5

For the next assay, the system named is survivin. Put plainly: Western blotting in NCI-H2228 cells. The class given is cell-based, Human. The note with it: agent alone, STX-1159 5 μM, 24 hours.
Where [2] appears, read: agent alone, STX-1159 5 μM, alectinib 0.01 or 0.1 μM.
Setting [3] is: both agents in combination (STX-1159 5 μM, alectinib 0.01 or 0.1 μM) versus each single agent.

Each structure is given as a SMILES string.

Regarding `CO[C@H]1C[C@@H]2CC[C@@H](C)[C@@](O)(O2)C(=O)C(=O)N2CCCC[C@H]2C(=O)O[C@H]([C@H](C)C[C@@H]2CC[C@@H](OCCO)[C@H](OC)C2)CC(=O)[C@H](C)/C=C(\C)[C@@H](O)[C@@H](OC)C(=O)[C@H](C)C[C@H](C)/C=C/C=C/C=C/1C` [Everolimus, everolimus], the figures for the CI in the assay on Caov-3, in the assay on Ishikawa and in the assay with MCF-7 were 0.90, 0.89 and 0.73, respectively. The figures for the Combination effect entry with Caov-3, in the assay with Ishikawa and with MCF-7 were “Light synergetic effect (0.85 < CI ≤ 0.9)”, “Light synergetic effect (0.85 < CI ≤ 0.9)” and “Moderate synergetic effect (0.7 < CI ≤ 0.85)”, respectively. Besides, the “combination effect by the median-effect method” value in assay [1] is “synergetic effect”.

As for `CS(=O)(=O)CCNCc1ccc(-c2ccc3ncnc(Nc4ccc(OCc5cccc(F)c5)c(Cl)c4)c3c2)o1` [Lapatinib, lapatinib], in the assay on SK-BR-3, the CI was found to be 0.88 and the Combination effect entry is on record as “Light synergetic effect (0.85 < CI ≤ 0.9)”. Also, the “combination effect by the median-effect method” value in assay [1] was “synergetic effect”.

Consider `CCc1cc2c(cc1N1CCC(N3CCOCC3)CC1)C(C)(C)c1[nH]c3cc(C#N)ccc3c1C2=O` [Alectinib], for which the entries for the “amount of phosphorylated STAT3” value on phosphorylated STAT3 (setting [2]) and on phosphorylated STAT3 (setting [3]) were “reduced” and “more reduced”, respectively. Also, the CI with NCI-H2228 is recorded as 0.57. For the same molecule, the Combination effect result with NCI-H2228 is “Synergetic effect (0.3 < CI ≤ 0.7)”. The “combination effect by the median-effect method” value in [1] is “synergetic effect”. Besides, the results for the amount of c-myc result in the assay with c-myc (setting [2]) and in the assay with c-myc (setting [3]) were “reduced” and “more reduced”, respectively.

For `COc1cc2nccc(Oc3ccc(NC(=O)NC4CC4)c(Cl)c3)c2cc1C(N)=O` [Lenvatinib, lenvatinib], the CI with Hep3B worked out at 0.75; with HuH-7 it was 0.85. Further, the Combination effect entry with Hep3B and with HuH-7 was “Moderate synergetic effect (0.7 < CI ≤ 0.85)” each time. The “combination effect by the median-effect method” value in assay [1] is reported as “synergetic effect”.

Take `Cc1ccc(NC(=O)c2ccc(CN3CCN(C)CC3)cc2)cc1Nc1nccc(-c2cccnc2)n1` [Imatinib]: the CI amounted to 0.83 with K562 and 0.85 in the assay on SUP-B15. Moreover, the Combination effect entry with K562 and in the assay with SUP-B15 was “Moderate synergetic effect (0.7 < CI ≤ 0.85)” throughout. Moreover, the “combination effect by the median-effect method” value in [1] is reported as “synergetic effect”.

Regarding `CNC(=O)c1cc(Oc2ccc(NC(=O)Nc3ccc(Cl)c(C(F)(F)F)c3)cc2)ccn1` [Sorafenib], the CI in the assay with FTC-133 came to 0.85; with SAS, 0.56; with K1, 0.77. Moreover, the Combination effect result in the assay on FTC-133 is reported as “Light synergetic effect (0.85 < CI ≤ 0.9)”; in the assay on SAS it was “Synergetic effect (0.3 < CI ≤ 0.7)”; in the assay on K1, “Moderate synergetic effect (0.7 < CI ≤ 0.85)”. Also, the “combination effect by the median-effect method” value in assay [1] is recorded as “synergetic effect”.

Consider `Cc1nc(Nc2ncc(C(=O)Nc3c(C)cccc3Cl)s2)cc(N2CCN(CCO)CC2)n1` [Dasatinib, dasatinib], for which, in the assay with K562, the CI was 0.78 and the Combination effect entry is “Moderate synergetic effect (0.7 < CI ≤ 0.85)”. Also, in the assay on SUP-B15, the CI is 0.71 and the Combination effect entry was “Moderate synergetic effect (0.7 < CI ≤ 0.85)”.

Consider `C=CC(=O)Nc1cc(Nc2nccc(-c3cn(C)c4ccccc34)n2)c(OC)cc1N(C)CCN(C)C` [Osimertinib, osimertinib], for which, in the assay with NCI-H1975, the CI came out at 0.81 and the Combination effect entry is “Moderate synergetic effect (0.7 < CI ≤ 0.85)”. Also, the “combination effect by the median-effect method” value in assay [1] was “synergetic effect”.

Turning to `O=C(Nc1nnc(-c2ccco2)o1)c1cc(-c2ccccc2)nc2ccc(OC(F)(F)F)cc12` [STX-1159, N-[5-(2-furyl)-1,3,4-oxadiazol-2-yl]-2-phenyl-6-tri fluoromethoxy-4-quinoline carboxamide], the “amount of phosphorylated STAT3” value at phosphorylated STAT3 (setting [2]) is listed as “reduced”. Also, in the assay on survivin, the amount of survivin entry is given as “reduced”. In addition, in the assay on c-myc (setting [2]), the amount of c-myc result is “reduced”.

The values are drawn from patent publication US20220008409A1, “CANCER COMBINATION THERAPY USING QUINOLINE CARBOXAMIDE DERIVATIVE” (KABUSHIKI KAISHA YAKULT HONSHA, priority 2018, published 2022).
